Reference: US10732173B2, “Use of aldehyde dehydrogenase as biomarker for beta-cell dysfunction and loss” (THE TRUSTEES OF COLUMBIA UNIVERSITY IN THE CITY OF NEW YORK, priority 2015, dated 2020)

Test system: MIN6 cells overexpressing ALDH1A3
Test: Glucose-stimulated insulin secretion in the presence of the ALDH inhibitor DEAB
Type: cell-based, mouse
Conditions: MIN6 cells overexpressing ALDH1A3, in the presence of DEAB (FIG. 12F)

CCN(CC)c1ccc(C=O)cc1 [DEAB, N,N-diethylaminobenzaldehyde]
effect on insulin secretion: did not detect an effect
